Assay results as given in ChEMBL document CHEMBL5625206, “Design, synthesis, and evaluation of novel pleuromutilin aryl acrylate derivatives as promising broad-spectrum antibiotics especially for combatting multi-drug resistant gram-negative bacteria” (Eur J Med Chem, 2023).
Activity calls are given as the source filed them. The calls are words filed in the database; no cut-off is given here.

Key:
[1] = Toxicity in fasted male Sprague-Dawley rat assessed as animal growth rate at 100 mg/kg, IG measured for 14 days (reference value: 46.53 +/- 3.19 g); type: organism-based; details: in vivo, po, 336 h, time 14 day
[2] = Toxicity in fasted female Sprague-Dawley rat assessed as relative heart weight ratio at 331 mg/kg, IG measured for 14 days (reference value: 0.429 +/- 0.016); type: organism-based; details: in vivo, po, 336 h, time 14 day
[3] = Toxicity in fasted male Sprague-Dawley rat assessed as body weight at 331 mg/kg, IG measured on same day (reference value: 212.7 +/- 13.2 g); type: organism-based; details: in vivo, po
Staphylococcus aureus [4] = test: Antibacterial activity against methicillin-resistant Staphylococcus aureus ATCC 33591 infected in neutropenic Kunming mouse model assessed as bacterial load reduction in liver at 10 to 20 mg/kg, ip measured after 2 days; type: functional, organism-based; details: dose 10-20 mg/kg, time 2.0 day
Escherichia coli [5] = test: Induction of cell damage in Escherichia coli ATCC 25922 assessed as decrease in intracellular ATP concentration at MIC incubated for 30 mins by fluorescence based analysis relative to control; type: functional; parameters: scale not given: the % may be the effect or the level left; details: 0.5 h
Staphylococcus aureus [6] = test: Induction of cell damage in methicillin-resistant Staphylococcus aureus ATCC 33591 assessed as fold increase in extracellular ATP concentration at 2 times MIC incubated for 30 mins by fluorescence based analysis relative to control; type: functional; details: 0.5 h
[7] = Toxicity in fasted Sprague-Dawley rat assessed as mortality rate at 100 mg/kg, IG measured for 14 days; type: organism-based; details: in vivo, po, time 14 day
[8] = Toxicity in Sprague-Dawley rat assessed as animal death at 10 to 100 mg/kg, IG measured for 14 days; type: organism-based; details: in vivo, po, 336 h, dose 10-100 mg/kg, time 14 day
[9] = Toxicity in fasted female Sprague-Dawley rat assessed as body weight at 100 mg/kg, IG measured after 14 days (reference value: 214.3 +/- 9.8 g); type: organism-based; details: in vivo, po, 336 h, time 14 day
Staphylococcus aureus [10] = test: Antibacterial activity against methicillin-resistant Staphylococcus aureus ATCC 33591 infected in neutropenic Kunming mouse model assessed as reduction in infection-induced inflammatory cell inflammation in kidney at 10 mg/kg, ip measured after 7 days; type: functional, organism-based; details: time 7.0 day
Escherichia coli [11] = test: Induction of cell damage in Escherichia coli ATCC 25922 assessed as intracellular pH at MIC incubated for 30 mins by fluorescence based analysis (reference value: 6.05 +/- 0.10); type: functional; details: 0.5 h
[12] = Toxicity in neutropenic Kunming mouse model infected with methicillin-resistant Staphylococcus aureus ATCC 33591 assessed as survival rate at 5 mg/kg, ip measured after 7 days relative to control; type: organism-based; details: in vivo, 168 h, time 7 day
[13] = Toxicity in fasted male Sprague-Dawley rat assessed as body weight at 500 mg/kg, IG measured after 14 days (reference value: 311.2 +/- 13.6 g); type: organism-based; details: in vivo, po, 336 h, time 14 day
Staphylococcus aureus [14] = test: Antibacterial activity against methicillin-resistant Staphylococcus aureus ATCC 33591 infected in neutropenic Kunming mouse model assessed as bacterial load reduction in kidney at 10 to 20 mg/kg, ip measured after 2 days; type: functional, organism-based; details: dose 10-20 mg/kg, time 2.0 day
[15] = Toxicity in fasted male Sprague-Dawley rat assessed as relative lung weight ratio at 224 mg/kg, IG measured for 14 days (reference value: 0.437 +/- 0.064); type: organism-based; details: in vivo, po, 336 h, time 14 day
Escherichia coli [16] = test: Bactericidal activity against Escherichia coli ATCC 25922 incubated for 24 hrs by time kill assay; type: functional, organism-based
Staphylococcus aureus [17] = test: Antibacterial activity against methicillin-resistant Staphylococcus aureus ATCC 33591 infected in neutropenic Kunming mouse model assessed as bacterial load reduction in lung at 10 to 20 mg/kg, ip measured after 2 days; type: functional, organism-based; details: dose 10-20 mg/kg, time 2.0 day
[18] = Toxicity in fasted female Sprague-Dawley rat assessed as relative liver weight ratio at 331 mg/kg, IG measured for 14 days (reference value: 3.199 +/- 0.062); type: organism-based; details: in vivo, po, 336 h, time 14 day
Staphylococcus aureus [19] = test: Induction of cell damage in methicillin-resistant Staphylococcus aureus ATCC 33591 assessed as intracellular pH at MIC incubated for 30 mins by fluorescence based analysis (reference value: 6.34 +/- 0.10); type: functional; details: 0.5 h
Staphylococcus aureus [20] = test: Antibacterial activity against methicillin-resistant Staphylococcus aureus ATCC 33591 infected in neutropenic Kunming mouse model assessed as restoration of infection- induced change in cell morphology in liver at 20 mg/kg, ip measured after 7 days; type: functional, organism-based; details: time 7.0 day
[21] = Toxicity in fasted female Sprague-Dawley rat assessed as body weight at 331 mg/kg, IG measured on same day (reference value: 165.2 +/- 8.1 g); type: organism-based; details: in vivo, po
[22] = Toxicity in fasted female Sprague-Dawley rat assessed as relative ovary weight ratio at 100 mg/kg, IG measured for 14 days (reference value: 0.061 +/- 0.010); type: organism-based; details: in vivo, po, 336 h, time 14 day
[23] = Toxicity in fasted male Sprague-Dawley rat assessed as relative kidney weight ratio at 500 mg/kg, IG measured for 14 days (reference value: 0.820 +/- 0.072); type: organism-based; details: in vivo, po, 336 h, time 14 day
[24] = Toxicity in fasted female Sprague-Dawley rat assessed as relative ovary weight ratio at 148 mg/kg, IG measured for 14 days (reference value: 0.061 +/- 0.010); type: organism-based; details: in vivo, po, 336 h, time 14 day
[25] = Cytotoxicity against HEK293 cells incubated for 24 hrs by CCK8 assay; type: toxicity, cell-based; details: human
Staphylococcus aureus [26] = test: Antibacterial activity against methicillin-resistant Staphylococcus aureus ATCC 33591 infected in neutropenic Kunming mouse model assessed as reduction in infection-induced inflammatory cell inflammation in lung at 10 mg/kg, ip measured after 7 days; type: functional, organism-based; details: time 7.0 day
Staphylococcus aureus [27] = test: Induction of extracellular electrical conductivity in methicillin-resistant Staphylococcus aureus ATCC 33591 at 2 times MIC incubated for 8 hrs relative to control
Escherichia coli [28] = test: Depolarization of cell membrane in Escherichia coli ATCC 25922 by DiBAC4(3) probe based analysis; type: functional, organism-based
Staphylococcus aureus [29] = test: Antibacterial activity against methicillin-resistant Staphylococcus aureus ATCC 33591 infected in neutropenic Kunming mouse model assessed as reduction in infection-induced inflammatory cell infiltration in liver at 20 mg/kg, ip measured after 7 days; type: functional, organism-based; details: time 7.0 day
[30] = Toxicity in fasted female Sprague-Dawley rat assessed as relative kidney weight ratio at 148 mg/kg, IG measured for 14 days (reference value: 0.802 +/- 0.031); type: organism-based; details: in vivo, po, 336 h, time 14 day
[31] = Half life in fasted Sprague-Dawley rat at 1 mg/kg, iv by LC-MS/MS analysis; type: ADME, organism-based; details: in vivo
[32] = Toxicity in fasted male Sprague-Dawley rat assessed as animal growth rate at 331 mg/kg, IG measured for 14 days (reference value: 46.53 +/- 3.19 g); type: organism-based; details: in vivo, po, 336 h, time 14 day
[33] = Toxicity in fasted female Sprague-Dawley rat assessed as relative kidney weight ratio at 500 mg/kg, IG measured for 14 days (reference value: 0.802 +/- 0.031); type: organism-based; details: in vivo, po, 336 h, time 14 day
Staphylococcus aureus [34] = test: Bactericidal activity against methicillin-resistant Staphylococcus aureus ATCC 33591 at MIC incubated for 24 hrs by time kill assay relative to control; type: functional
[35] = Toxicity in fasted male Sprague-Dawley rat assessed as body weight at 148 mg/kg, IG measured after 14 days (reference value: 311.2 +/- 13.6 g); type: organism-based; details: in vivo, po, 336 h, time 14 day

C=C[C@]1(C)C[C@@H](OC(=O)COC(=O)/C=C/c2ccc(N(C)C)cc2)[C@]2(C)[C@H](C)CC[C@]3(CCC(=O)[C@H]32)[C@@H](C)[C@@H]1O
Activity [1]: 46.18% | Ratio [2]: 0.471 | Activity [3]: 217.4 g | Activity (Staphylococcus aureus [4]): Active | Activity (Escherichia coli [5]): 50.75% | fold change (FC) (Staphylococcus aureus [6]): 3.21 | mortality at 336 h [7]: 0% | Activity [8]: Non-Toxic | Activity [9]: 214.6 g | Activity (Staphylococcus aureus [10]): inactive | pH (Escherichia coli [11]): 4.34 | Survival [12]: 30% | Activity [13]: 296.8 g | Activity (Staphylococcus aureus [14]): Active | Ratio [15]: 0.411 | Activity (Escherichia coli [16]): Dose-Dependent Effect | Activity (Staphylococcus aureus [17]): Active | Ratio [18]: 3.171 | pH (Staphylococcus aureus [19]): 4.27 | Activity (Staphylococcus aureus [20]): Active | Activity [21]: 171.3 g | Ratio [22]: 0.071 | Ratio [23]: 0.759 | Ratio [24]: 0.066 | CC50 at 24 h [25]: 34.6 µM | Activity (Staphylococcus aureus [26]): inactive | Activity (Staphylococcus aureus [27]): 25.63% | Activity (Escherichia coli [28]): Dose-Dependent Effect | Activity (Staphylococcus aureus [29]): Active | Ratio [30]: 0.818 | half-life [31]: 40.8 min | Activity [32]: 40.48% | Ratio [33]: 0.798 | Activity (Staphylococcus aureus [34]): 48.55% | Activity [35]: 303.6 g
